Laboratory results: patent publication US8410150B2, “Inhibitors of carnitine palmitoyltransferase and treating cancer” (University Health Network, priority 2007, dated 2013)
Like-named read-outs stand apart in the source and are kept apart here.

How the values were obtained:
Assay in all cases: Cell growth inhibition, SRB assay
Format in all cases: cell-based, human
A172 = settings: Homo sapiens
Method: (§1) Human cancer cells (MCF-7, H358, H460, HCT116 p53^+/+, HCT116 p53^−/−, A172, PC-3, DU-145 and SW626) were maintained in DMEM medium containing 10% Fetal Bovine Serum (FBS) (Invitrogen, Burlington, ON, Canada) and normal cells HMEC, 184A1, NHBE and PrEC were cultured in MEGM, MEGM plus transferring and cholera toxin, BEGM and PrEGM supplemented with various growth factors (Cambrex, Charles city, IA, USA), respectively.
(§2) Compounds were dissolved in DMSO and further diluted in cell culture medium for the experiments performed. Cells were seeded into 96-well plates with 1,500-5,000 cells/well according to cell growth rate. After 24 h, DMEM medium containing 10% FBS were changed to DMEM containing 3% FBS for cancer cells and additional 3% FBS were added into the culture medium for normal cells. The compound was added into the cell culture at the indicated concentrations, and the final concentration of DMSO was adjusted to a final concentration of 0.1%. Cells were subjected to either normoxic condition (20% O2) for 6 days or hypoxic condition (0.2% O2) for 2 days and then transferred to normoxic condition for 4 days. Cell viability was assessed by Sulforhodamine B (SRB) assay at Day 6.
(§3) Sulforhodamine B (SRB) (Sigma, Oakville, ON, Canada) is a water-soluble dye that binds to the basic amino acids of the cellular proteins. Thus, colorimetric measurement of the bound dye provides an estimate of the total protein mass that is related to the cell number. The cells were fixed in situ by gently aspirating off the culture media and adding 50 ul of cold 10% trichloroacetic Acid (TCA) per well and incubated at 4° C. for 30-60 min. The plates were washed five times with water and allowed to air dry for 5 min. 50 ul of 0.4% (w/v) SRB dissolved in 1% (v/v) acetic acid were added into each well, plates were then incubated at RT for 30 min for staining, washed four times with 1% acetic acid to remove any unbound dye and then allowed to air dry for 5 min. Stain was solubilized with 100 ul of 10 mM Tris pH 10.5 per well. Absorbance was read at 570 nm on a spectrophotometer. GI50 (compound concentration required for 50% of growth inhibition) was calculated using GraphPad Prism 4.0 software (GraphPad Software, Inc., San Diego, Calif., USA).
(§4) Cell viability of various cell lines treated with 3-carboxy-N,N,N-trimethyl-2-pentadecanamidopropan-1-aminium (“nPAC”) and compound of Examples S7, S63, S66, S90, S89, S67, S75 and S10 was also assessed in a manner as described above in Example 5.

H358 = settings: Homo sapiens
Method: as §1, §2, §3, §4

MCF-7 = settings: Homo sapiens
Method: as §1, §2, §3, §4

PC-3 = settings: Homo sapiens
Method: as §1, §2, §3, §4

SW626 = settings: Homo sapiens
Method: as §1, §2, §3, §4

A54 = settings: Homo sapiens; Lung A54, 3% FBS
Method: as §2, §3, §4

COLO-205 = settings: Homo sapiens; Colon COLO-205, 3% FBS
Method: as §2, §3, §4

HCT-15 = settings: Homo sapiens; Colon HCT-15, 3% FBS
Method: as §2, §3, §4

Hs578T = settings: Homo sapiens, Hs-578T; Breast Hs578T, 3% FBS
Method: as §2, §3, §4

SW480 = settings: Homo sapiens; Colon SW480, 3% FBS
Method: as §2, §3, §4

SW620 = settings: Homo sapiens, SW-620; Colon SW620, 3% FBS
Method: as §2, §3, §4

[1] = A 172, Brain A172, 3% FBS, read-out: GI50
[2] = NCI-H358, Lung H358, 3% FBS, read-out: GI50
[3] = MCF7, Breast MCF-7, 3% FBS, read-out: GI50
[4] = Prostate PC-3, 3% FBS, read-out: GI50
[5] = Ovarian SW626, 3% FBS, read-out: GI50
[6] = NCI-H358, 144 h, treated 6 days, SRB assay, mean±SD of 2 experiments (FIG. 1, 2), read-out: GI50 for H358
[7] = MCF7, 144 h, treated 6 days, SRB assay, mean±SD of 2 experiments (FIG. 1, 2), read-out: GI50 for MCF-7

Molecule `CCCCCCCCCCCCc1ccc(NS(=O)(=O)N[C@H](CC(=O)O)C[N+](C)(C)C)cc1` [Example S89, (R)-3-(N-(4-dodecylphenyl)sulfamoylamino)-4-(trimethylammonio)-butanoate] has a GI50 (A172; [1]) of 4100 nM, a GI50 (H358; [2]) of 1400 nM and a GI50 (MCF-7; [3]) of 4200 nM. For the same molecule, the GI50 (PC-3; [4]) was 1600 nM, the GI50 (SW626; [5]) was 2300 nM and the GI50 (A54) was 21000 nM. For the same molecule, the GI50 (COLO-205) was 1400 nM, the GI50 (HCT-15) was 2200 nM and the GI50 (Hs578T) was 7300 nM. It also gave a GI50 (SW480) of 1500 nM and a GI50 (SW620) of 1900 nM.
Work on `CCCCCCCCCCOc1cccc(C(=O)N[C@H](CC(=O)[O-])C[N+](C)(C)C)c1` [Example S67, (R)-3-(3-(decyloxy)benzamido)-4-(trimethylammonio)butanoate] yielded a GI50 (A172; [1]) of 3600 nM, a GI50 (H358; [2]) of 700 nM and a GI50 (MCF-7; [3]) of 700 nM. The GI50 (PC-3; [4]) was 1500 nM, the GI50 (SW626; [5]) was 2700 nM and the GI50 (A54) was 88000 nM. It also gave a GI50 (COLO-205) of 2700 nM, a GI50 (HCT-15) of 14000 nM and a GI50 (Hs578T) of 17000 nM. The GI50 (SW480) was 700 nM and the GI50 (SW620) was 5500 nM.
`CCCCCCCCc1ccc(NC(=O)N[C@H](CC(=O)[O-])C[N+](C)(C)C)cc1` [Example S7, (R)-3-(3-(4-octylphenyl)ureido)-4-(trimethylammonio)butanoate] was tested, and the GI50 (A172; A 172, 144 h, A172, normoxic condition (20% O2) for 6 days, read-out: GI50 Normoxi) was 3800 ± 500 nM, the GI50 (A172; A 172, A172, hypoxic condition (0.2% O2) for 2 days, then normoxic for 4 days, read-out: GI50 Hypoxia) was 1900 ± 800 nM and the GI50 (A172; [1]) was 3000 nM. For the same molecule, the GI50 (A172; A 172, SRB assay, mean±SD of 2 experiments (FIG. 2), read-out: GI50 for A172) was 3800 ± 500 nM, the GI50 (H358; [6]) was 1000 ± 300 nM and the GI50 (H358; [2]) was 500 nM. For the same molecule, the GI50 (MCF-7; MCF7, 144 h, MCF-7, normoxic condition (20% O2) for 6 days, read-out: GI50 Normoxi) was 5300 ± 1300 nM, the GI50 (MCF-7; [7]) was 5000 ± 1300 nM and the GI50 (MCF-7; [3]) was 4500 nM. The GI50 (MCF-7; MCF7, MCF-7, hypoxic condition (0.2% O2) for 2 days, then normoxic for 4 days, read-out: GI50 Hypoxia) was 2500 ± 600 nM, the GI50 (PC-3; PC-3, SRB assay, mean±SD of 2 experiments (FIG. 2), read-out: GI50 for PC-3) was 800 ± 300 nM and the GI50 (PC-3; [4]) was 700 nM. The GI50 (SW626; SW626, SRB assay, mean±SD of 2 experiments (FIG. 2), read-out: GI50 for SW626) was 800 ± 700 nM, the GI50 (SW626; [5]) was 800 nM and the GI50 (A54) was 25000 nM. For the same molecule, the GI50 (COLO-205) was 900 nM, the GI50 (HCT-15) was 1300 nM and the GI50 (Hs578T) was 33000 nM. The GI50 (SW480) was 800 nM and the GI50 (SW620) was 1500 nM.
Work on `CCCCCCCCCCc1ccc(C(=O)N[C@H](CC(=O)[O-])C[N+](C)(C)C)cc1` [Example S66, (R)-3-(4-decylbenzamido)-4-(trimethylammonio)butanoate] yielded a GI50 (A172; [1]) of 1800 nM, a GI50 (H358; [2]) of 400 nM and a GI50 (MCF-7; [3]) of 100 nM. For the same molecule, the GI50 (PC-3; [4]) was 300 nM, the GI50 (SW626; [5]) was 1500 nM and the GI50 (A54) was 28000 nM. The GI50 (COLO-205) was 400 nM, the GI50 (HCT-15) was 1100 nM and the GI50 (Hs578T) was 8200 nM. It also gave a GI50 (SW480) of 300 nM and a GI50 (SW620) of 600 nM.
`CCCCCCCOc1ccc(NC(=O)N[C@H](CC(=O)[O-])C[N+](C)(C)C)cc1` [Example S10, (R)-3-(3-(4-(heptyloxy)phenyl)ureido)-4-(trimethylammonio)butanoate] gave a GI50 (A172; [1]) of 40000 nM, a GI50 (H358; [6]) of 4100 ± 1300 nM and a GI50 (H358; [2]) of 3400 nM. The GI50 (MCF-7; [7]) was 1000 ± 100 nM, the GI50 (MCF-7; [3]) was 44000 nM and the GI50 (PC-3; [4]) was 5300 nM. For the same molecule, the GI50 (SW626; [5]) was 15000 nM, the GI50 (A54) was greater than 50000 nM and the GI50 (COLO-205) was 4600 nM. It also gave a GI50 (HCT-15) of 28000 nM, a GI50 (Hs578T) greater than 50000 nM and a GI50 (SW480) of 9300 nM. It also gave a GI50 (SW620) of 19000 nM.
`CCCCCCCCCCOc1ccc(C(=O)N[C@H](CC(=O)O)C[N+](C)(C)C)cc1` [Example S63, (R)-3-(4-(decyloxy)benzamido)-4-(trimethylammonio)butanoate 2,2,2-trifluoroacetate] gave a GI50 (A172; [1]) of 900 nM, a GI50 (H358; [2]) of 400 nM and a GI50 (MCF-7; [3]) of 400 nM. The GI50 (PC-3; [4]) was 300 nM, the GI50 (SW626; [5]) was 1200 nM and the GI50 (A54) was 14000 nM. The GI50 (COLO-205) was 300 nM, the GI50 (HCT-15) was 500 nM and the GI50 (Hs578T) was 3700 nM. The GI50 (SW480) was 400 nM and the GI50 (SW620) was 500 nM.
For `CCCCCCCCCCc1ccc(S(=O)(=O)N[C@H](CC(=O)O)C[N+](C)(C)C)cc1` [Example S75, (R)-3-carboxy-2-(4-decylphenylsulfonamido)-N,N,N-trimethylpropan-1-aminium 2,2,2-trifluoroacetate], the GI50 (A172; [1]) was 18000 nM, the GI50 (H358; [2]) was 2800 nM and the GI50 (MCF-7; [3]) was 11000 nM. It also gave a GI50 (PC-3; [4]) of 1500 nM, a GI50 (SW626; [5]) of 4100 nM and a GI50 (A54) of 31000 nM. The GI50 (COLO-205) was 3600 nM, the GI50 (HCT-15) was 5600 nM and the GI50 (Hs578T) was 13000 nM. For the same molecule, the GI50 (SW480) was 1900 nM and the GI50 (SW620) was 4100 nM.
`CCCCCCCCCCCCCCc1ccc(NS(=O)(=O)N[C@H](CC(=O)O)C[N+](C)(C)C)cc1` [Example S90, (R)-3-(N-(4-tetradecylphenyl)sulfamoylamino)-4-(trimethylammonio)-butanoate] was tested, and the GI50 (A172; [1]) was 6600 nM, the GI50 (H358; [2]) was 1100 nM and the GI50 (MCF-7; [3]) was 4000 nM. It also gave a GI50 (PC-3; [4]) of 1300 nM, a GI50 (SW626; [5]) of 3100 nM and a GI50 (A54) of 21000 nM. The GI50 (COLO-205) was 2400 nM, the GI50 (HCT-15) was 3300 nM and the GI50 (Hs578T) was 8200 nM. It also gave a GI50 (SW480) of 1300 nM and a GI50 (SW620) of 2400 nM.
